In patent US11173140B2, “Dosing regimens of PKC activators” (COGNITIVE RESEARCH ENTERPRISES, INC., priority 2015, dated 2021):

Assay: Bryostatin levels in brain and plasma (HPLC-MS), crossing of blood-brain barrier
Type: in vivo, mice
Conditions: for bryostatin (% of Control), BRAIN: mouse brain; for bryostatin (% of Control), PLASMA: mouse plasma
Experimental: FIG. 5 illustrates the steady state concentration of bryostatin in the brain and plasma of mice following intravenous administration at the indicated doses.
Further evaluation was performed on bryostatin crossing the blood-brain-barrier (BBB) and the steady state levels of bryostatin in the brain and plasma of mice. […] The concentration of bryostatin in mice brain was less than its concentration in plasma.
In these studies, bryostatin was administered intravenously (i.v.) by injection into the tail vein of a mouse. Stock solutions of bryostatin were prepared in dimethyl sulfoxide (DMSO). Prior to administration to a mouse, the stock DMSO solution of bryostatin was diluted to a predetermined concentration by dilution with phosphate buffered saline/saline (PBS/saline).
The brain, whole blood, and plasma of mice in each dosing group as well as control mice was collected at 1 hour, 24 hours and 7 days after the last injection of bryostatin. PBMC's were isolated from blood and the brain, blood, plasma and PBMC's were frozen immediately using dry ice. Prior to analysis PBMC's were counted by diluting the sample (10 μl aliquot), 10-fold and the PBMC's counted using a Millipore Scepter cell counter. Every group of test animals had its own control group (N=3). Mice in the control group were injected with vehicle at a frequency similar to the dosing regimen and these animals were sacrificed and tested in parallel with mice in the test group.
Each measurement was performed four times (X4). BDNF levels were measured using ELISA and the concentration of protein PSD-95 was measured by Western Blot. High performance liquid chromatography-mass spectral analysis was used to measure the concentration of bryostatin in blood and brain samples based on a standard curve. Total protein concentrations were measured Coomassie Plus (Bradford) Protein Assay kit.
The therapeutic efficacy of bryostatin depends at least in part on its ability to cross the blood-brain-barrier (BBB). To evaluate whether dosing regimen influences the bryostatin levels in brain, mice were administered the drug intravenously. Table 9 illustrates the effect of dose and dosing regimen on bryostatin levels in the brain and plasma of mice. Sporadic dosing increased the levels of bryostatin in brain compared to plasma. See data for mice in cages 9 and 11.

[1] = cage 4: 25 μg/m^2 i.v. once weekly, 3 weeks, 24 h
[2] = cage 6: 10 μg/m^2 i.v. once weekly, 3 weeks, 24 h
[3] = cage 9: 25 μg/m^2 i.v., weeks 1 and 3, 24 h
[4] = cage 11: 25 μg/m^2 i.v., weeks 1 and 2, 7 d delay

CCC/C=C/C=C/C(=O)O[C@H]1/C(=C/C(=O)OC)C[C@H]2C[C@H]([C@@H](C)O)OC(=O)C[C@H](O)C[C@@H]3C[C@H](OC(C)=O)C(C)(C)[C@](O)(C[C@@H]4C/C(=C/C(=O)OC)C[C@H](/C=C/C(C)(C)[C@]1(O)O2)O4)O3 [Bryostatin-1]
increase of bryostatin concentration in brain (mice, 25 μg/m^2 weekly for three consecutive weeks versus 1 on/1 off or 2 on/1 off): less effective
crossing of the blood-brain-barrier (mice, intravenous): crossed the BBB
plasma concentrations of bryostatin (mice, single weekly injection for three consecutive weeks versus 1 on/1 off or 2 on/1 off): greater
levels of bryostatin in brain compared to plasma (mice, sporadic dosing (cages 9 and 11)): increased
bryostatin (% of Control), BRAIN [1]: 0.0140 % of Control
bryostatin (% of Control), BRAIN [2]: 0.0202 % of Control
bryostatin (% of Control), BRAIN [3]: 0.0197 % of Control
bryostatin (% of Control), BRAIN [4]: 0.0217 % of Control
bryostatin (% of Control), PLASMA [1]: 0.0306 % of Control
bryostatin (% of Control), PLASMA [2]: 0.0287 % of Control
bryostatin (% of Control), PLASMA [3]: 0.0148 % of Control
bryostatin (% of Control), PLASMA [4]: 0.0012 % of Control
